Measured values: patent publication US20240262812A1, “N-SUBSTITUTED PHENYLSULFONAMIDE COMPOUND AND USE THEREOF” (Shanghai Leado Pharmatech Co., Ltd., priority 2021, published 2024)

What was measured:
mTRPA1 = biological target: T1, mTRPA1 (Mus musculus, UniProt Q8BLA8); assay: IonWorks Barracuda (IWB) automated patch clamp, TRPA1 inhibitory activity; assay type: cell-based; settings: HEK293 cells stably expressing mTRPA1, current induced by AITC, amplitude at +100 mV; read-out: IC50 (inhibition activity on TRPA1)
T1 construct: expressed in transfected cells
T1 sequence (Q8BLA8 whole entry): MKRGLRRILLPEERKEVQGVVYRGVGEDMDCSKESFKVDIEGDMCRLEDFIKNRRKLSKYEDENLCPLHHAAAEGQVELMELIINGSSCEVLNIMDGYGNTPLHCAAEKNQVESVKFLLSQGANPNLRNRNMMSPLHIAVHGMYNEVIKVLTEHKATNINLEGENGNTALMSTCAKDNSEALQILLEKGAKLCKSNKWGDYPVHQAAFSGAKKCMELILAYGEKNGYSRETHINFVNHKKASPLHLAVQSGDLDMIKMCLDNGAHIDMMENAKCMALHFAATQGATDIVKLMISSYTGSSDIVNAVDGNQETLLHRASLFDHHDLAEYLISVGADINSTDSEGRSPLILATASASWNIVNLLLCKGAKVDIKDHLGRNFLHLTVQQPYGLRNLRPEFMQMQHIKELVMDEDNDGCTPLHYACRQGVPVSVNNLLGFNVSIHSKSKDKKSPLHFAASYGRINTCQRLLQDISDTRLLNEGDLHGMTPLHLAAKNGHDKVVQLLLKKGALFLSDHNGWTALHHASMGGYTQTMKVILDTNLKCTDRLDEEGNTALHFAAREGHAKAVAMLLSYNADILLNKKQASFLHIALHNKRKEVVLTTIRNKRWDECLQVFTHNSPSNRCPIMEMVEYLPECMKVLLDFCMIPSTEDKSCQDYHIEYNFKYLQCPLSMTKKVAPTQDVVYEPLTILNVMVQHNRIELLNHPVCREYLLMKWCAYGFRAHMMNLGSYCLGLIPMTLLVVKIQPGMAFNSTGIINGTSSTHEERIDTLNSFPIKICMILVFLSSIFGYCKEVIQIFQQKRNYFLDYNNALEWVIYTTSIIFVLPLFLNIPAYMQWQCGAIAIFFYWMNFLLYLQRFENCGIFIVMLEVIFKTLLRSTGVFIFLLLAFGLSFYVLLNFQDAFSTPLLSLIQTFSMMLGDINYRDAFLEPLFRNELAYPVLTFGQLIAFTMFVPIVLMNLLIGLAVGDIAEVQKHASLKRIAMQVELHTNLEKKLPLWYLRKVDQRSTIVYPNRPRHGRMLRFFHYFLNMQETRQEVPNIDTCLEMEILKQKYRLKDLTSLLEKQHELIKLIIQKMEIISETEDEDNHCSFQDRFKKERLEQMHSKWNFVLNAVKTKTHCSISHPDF
Method: In this example, the inhibitory activity of the compounds prepared in some examples of the present invention on transient receptor potential channel protein ankyrin 1 (TRPA1) was tested. Among them, compound of formula A (WO2010075353) was used as the positive control compound: […]
Test method using IonWorks Barracuda (IWB) automated patch clamp detection: HEK293 cells stably expressing mTRPA1 were placed in the T175 culture flask with DMEM medium containing 15 µg/mL Blasticidin S HCl, 200 µg/mL Hygromycin B and 10% FBS, and cultured in 37° C., 5% CO2 incubator. When the cell density reached about 80%, the culture medium was removed, washed once with phosphate buffered saline (PBS) without calcium and magnesium. 3 mL of Trypsin was added to digest for 2 min, 7 mL of culture solution was added to terminate the digestion. The cells were collected to 15 mL centrifuge tube and centrifuged at 800 rpm for 3 min. After the supernatant was removed, the cells were added to appropriate volume of extracellular fluid for re-suspending, and the cell density was controlled at 2-3×10^6/mL for use in IWB experiment. Extracellular fluid formulation (in mM): 140 NaCl, 5 KCl, 1 MgCl2, 10 HEPES, 0.5 EGTA, 10 Glucose (pH 7.4); intracellular fluid formulation (in mM): 140 CsCl, 10 HEPES, 5 EGTA, 0.1 CaCl2, 1 MgCl2 (pH 7.2). 28 mg/mL of amphotericin B was freshly prepared with DMSO on the day of experiment, and then final concentration of 0.1 mg/mL was prepared with intracellular fluid.
Population patch clamp (PPC) plate was used in IWB experiment. The entire detection process was automatically carried out by the instrument, that is, extracellular fluid was added into 384 wells of PPC plate, and after intracellular fluid was added under PPC plate (in plenum), 6 µL of cell fluid was added for sealing test, and finally the intracellular fluid in plenum was replaced with intracellular fluid containing amphotericin B to establish a whole-cell recording mode after perforating sealed cells. The sampling frequency for recording TPRA1 current was 10 kHz, the cells were clamped at 0 mV, the voltage stimulation command (channel protocol) was a ramp voltage from −100 mV to +100 mV for 300 ms. This voltage stimulation was applied every 10 s, mTRPA1 current was induced by 300 µM AITC.
Data recording and current amplitude measurement export were carried out by IWB software (version 2.5.3, Molecular Devices Corporation, Union City, CA). No statistics was recorded for holes with sealing impedance lower than 20 MΩ. The original current data was corrected by software for leak subtraction. TRPA1 current amplitude was measured at +100 mV. […] If IC50 value of HC030031 exceeded 3 times of the average IC50 value previously obtained on each plate, it would be re-tested. The dose-effect curve of compounds and IC50 were fitted and calculated by GraphPad Prism 5.02 (GraphPad Software, San Diego, CA).
Some compounds of the present invention were subjected to IC50 inhibition activity test using the IonWorks Barracuda (IWB) automated patch clamp detection method.

chemokine receptor CCR9 = biological target: T2, chemokine receptor CCR9 (Homo sapiens, UniProt P51686); assay: CCR9 antagonistic activity, calcium flow (Fluo-4, FlexStation), CCL25 agonist; assay type: cell-based; settings: antagonistic mode, CCL25 150 nM; for inhibition at 100 µM: read-out: Inhibition rate (%) (100 μM)
T2 construct: expressed in transfected cells
T2 sequence (P51686 1-369): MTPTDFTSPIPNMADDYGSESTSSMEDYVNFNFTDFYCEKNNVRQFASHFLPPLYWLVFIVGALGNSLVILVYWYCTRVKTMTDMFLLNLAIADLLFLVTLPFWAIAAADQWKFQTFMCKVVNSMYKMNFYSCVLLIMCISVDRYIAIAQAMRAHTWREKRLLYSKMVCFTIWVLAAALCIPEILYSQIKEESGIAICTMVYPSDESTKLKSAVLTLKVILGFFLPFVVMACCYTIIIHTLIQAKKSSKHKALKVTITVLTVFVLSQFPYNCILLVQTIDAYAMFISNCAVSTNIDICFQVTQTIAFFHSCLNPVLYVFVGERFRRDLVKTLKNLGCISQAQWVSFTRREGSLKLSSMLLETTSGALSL
Description: 2.1 Main reagents: DMEM culture medium (GIBCO); dimethyl sulfoxide (Sigma); FLUO-4, AM (Invitrogen) 2.2 Main instrument: Flexstation-3 (Molecular Devices) The test concentration gradient of the compound and replicates were set according to the requirement of testing ICSO. All test substances with 8 concentrations were set, with 3 replicates for each concentration. By establishing a cell line that cotransformed the receptor and G16, the receptor being activated can induce the activation of Gα16 protein, thereby activating phospholipase C (PLC) to produce IP3 and DAG. IP3 can bind to the IP3 receptor on the intracellular endoplasmic reticulum and mitochondria, leading to the release of intracellular calcium. Therefore, measuring changes in intracellular calcium can serve as a method for detecting the activation status of target receptor. Fluo-4/AM is a calcium fluorescent probe indicator used to measure calcium ion, as a non-polar lipophilic compound, under the action of cell lipase after entering cells, the AM group dissociates and releases Fluo-4; since Fluo-4 is a polar molecule, it is not easy to pass through lipid bilayers, allowing it to remain in the cell for a long time. Ultimately, the level of G protein activation can be reflected by measuring the excited fluorescence intensity. […] Cells stably expressing the target receptor/Ga16 were planted on a 96 well plate and cultured overnight. 2. The culture solution was removed from the well planted cells, then 40 μL/well of freshly prepared dye was added. The mixture was incubated at a constant temperature in a 37° C. incubator for 40 minutes. 3. The drug to be tested was diluted with calcium buffer and mixed well. 4. The dye was absorbed and discarded. After washed once with freshly prepared calcium buffer, 50 μL of calcium buffer that dissolved the drug to be tested was added for replacement. 5. The FlexStation II instrument was used for detection. Starting from the 15th second, […] dissolved with known agonist was automatically added by the instrument, and finally the fluorescence value at 525 nm was readed. The following formula was used to calculate the cell response rate (% Response) for each sample under each concentration. […] IC50 value was calculated using GraphPad Prism.

IC50 (mTRPA1)	inhibition at 100 µM (chemokine receptor CCR9)	IC50 (chemokine receptor CCR9)	SMILES
1 to 5 µM	30%	> 100 µM	O=S(=O)(Nc1ccc(CN2CC(F)C2)cc1-c1ccco1)c1ccsc1 [IJ-2, N-(4-((3-fluoroazetidin-1-yl)methyl)-2-(furan-2-yl)phenyl)thiophene-3-sulfonamide]
1 to 5 µM	17%	> 100 µM	CNCc1ccc(-n2cccn2)c(NS(=O)(=O)c2ccccc2)c1 [IQ-2, N-(5-((methylamino)methyl)-2-(1H-pyrazol-1-yl)phenyl)benzenesulfonamide]
1 to 5 µM	22%	> 100 µM	CNCc1ccc(-c2ccoc2)c(NS(=O)(=O)c2ccsc2)c1 [IA-43, N-(2-(furan-3-yl)-5-((methylamino)methyl)phenyl)thiophene-3-sulfonamide]
1 to 5 µM	10%	> 100 µM	O=S(=O)(Nc1ccc(CNC2CC2)cc1-c1ccco1)c1ccsc1 [IA-33, N-(4-((cyclopropylamino)methyl)-2-(furan-2-yl)phenyl)thiophene-3-sulfonamide]
< 1 µM	15%	> 100 µM	NCc1ccc(-c2ccco2)c(NS(=O)(=O)c2ccccc2)c1 [ID-1, N-(5-(aminomethyl)-2-(furan-2-yl)phenyl)benzenesulfonamide]
< 1 µM	10%	> 100 µM	CNCc1ccc(N(C)S(=O)(=O)c2ccsc2)c(-c2ccco2)c1 [IB, N-(2-(furan-2-yl)-4-((methylamino)methyl)phenyl)-N-methylthiophene-3-sulfonamide]
1 to 5 µM	14%	> 100 µM	CNCc1ccc(-c2ccco2)c(NS(=O)(=O)c2ccc(F)cc2)c1 [IA-1, 4-Fluoro-N-(2-(furan-2-yl)-5-((methylamino)methyl)phenyl)benzenesulfonamide]
1 to 5 µM	25%	> 100 µM	CNCc1ccc(-c2ccco2)c(NS(=O)(=O)c2ccsc2)c1 [IA-21, N-(2-(furan-2-yl)-5-((methylamino)methyl)phenyl)thiophene-3-sulfonamide]
1 to 5 µM	0%	> 100 µM	CNCc1ccc(-c2ccco2)c(NS(=O)(=O)c2ccccc2OC)c1 [IA-5, 2-Methoxy-N-(2-(furan-2-yl)-5-((methylamino)methyl)phenyl)benzenesulfonamide]
1 to 5 µM	5%	> 100 µM	CNCc1ccc(-c2ccco2)c(NS(=O)(=O)c2ccc(F)cc2F)c1 [IA-11, 2,4-Difluoro-N-(2-(furan-2-yl)-5-((methylamino)methyl)phenyl)benzenesulfonamide]
1 to 5 µM	22%	> 100 µM	CNCc1ccc(-n2cccc2)c(NS(=O)(=O)c2ccccc2)c1 [IQ-1, N-(5-((methylamino)methyl)-2-(1H-pyrrole-1-yl)phenyl)benzenesulfonamide]
1 to 5 µM	30%	> 100 µM	CNCc1ccc(-c2cccs2)c(NS(=O)(=O)c2ccc(F)cc2)c1 [IA-45, 4-Fluoro-N-(5-((methylamino)methyl)-2-(thiophene-2-yl)phenyl)benzenesulfonamide]
1 to 5 µM	12%	> 100 µM	CNCc1ccc(-c2ccoc2)c(NS(=O)(=O)c2cccs2)c1 [IA-44, N-(2-(furan-3-yl)-5-((methylamino)methyl)phenyl)thiophene-2-sulfonamide]
1 to 5 µM	11%	> 100 µM	NCc1ccc(NS(=O)(=O)c2ccsc2)c(-c2cc[nH]n2)c1 [ID-7, N-(4-(aminomethyl)-2-(1H-pyrazole-3-yl)phenyl)thiophene-3-sulfonamide]
1 to 5 µM	19%	> 100 µM	CNCc1ccc(-c2ccsc2)c(NS(=O)(=O)c2ccccc2)c1 [IA-49, N-(2-(thiophene-3-yl)-5-((methylamino)methyl)phenyl)benzenesulfonamide]
< 1 µM	13%	> 100 µM	NCc1ccc(-c2ccco2)c(NS(=O)(=O)c2ccsc2)c1 [ID-3, N-(5-(aminomethyl)-2-(furan-2-yl)phenyl)thiophene-3-sulfonamide]
1 to 5 µM	0%	> 100 µM	CNCc1ccc(-c2ccco2)c(NS(=O)(=O)c2ccc3c(c2)CCO3)c1 [IA-15, N-(2-(furan-2-yl)-5-((methylamino)methyl)phenyl)-2,3-dihydrobenzofuran-5-sulfonamide]
1 to 5 µM	35%	> 100 µM	CNCc1ccc(-c2ccc(C)o2)c(NS(=O)(=O)c2ccccc2)c1 [IA-35, N-(5-((methylamino)methyl)-2-(5-methylfuran-2-yl)phenyl)benzenesulfonamide]
< 1 µM	22%	> 100 µM	CN(c1ccc(CN)cc1-c1ccco1)S(=O)(=O)c1ccsc1 [IF, N-(4-(aminomethyl)-2-(furan-2-yl)phenyl)-N-methylthiophene-3-sulfonamide]

SMILES	IC50 (mTRPA1)	inhibition at 100 µM (chemokine receptor CCR9)	IC50 (chemokine receptor CCR9)
NCCc1ccc(NS(=O)(=O)c2ccsc2)c(-c2ccco2)c1 [IR, N-(4-(2-aminoethyl)-2-(furan-2-yl)phenyl)thiophene-3-sulfonamide]	1 to 5 µM	25%	> 100 µM
